Experimental data taken from US6897237B2, “MMP-12 inhibitors” (Shionogi & Co. Ltd., priority 2000, dated 2005).

How the values were obtained:
MMP-8 catalytic domain = target: T1, MMP-8 catalytic domain (Homo sapiens, UniProt P22894); experiment: Assay for inhibitory activities on MMPs (fluorogenic peptide substrate): MMP-8; type: biochemical; settings: substrate MOCAc-Pro-Leu-Gly-Leu-A2Pr(DNP)-Ala-Arg-NH2
T1 construct: catalytic domain (^99Phe˜^262Gly); His-tag; enterokinase digestion-site; made in house; host or cells: Escherichia coli
Excerpt: In regard to MMP-8, catalytic domain (^99Phe˜^262Gly) was amplified with PCR using commercial available Human Bone Marrow cDNA. This was cloned in Escherichia. coli expression vector pTrc99AHE inserted with His-tag sequence and enterokinase digestion-site, induced and expressed by IPTG (Isopropyl-β-D-thiogalactopyranoside) and expressed in a insoluble fraction (Than F. Ho, M. Walid Qoronfleh, Robert C. Wahl, Trica A. Pulvino, Karen J. Vavra, Joe Falvo, Tracey M. Banks, Patricia G. Brake and Richard B. Ciccarelli: Gene expression, purification and characterization of recombinant human neutrophil collagenase. Gene 146, (1994) 297-301, Prepared by the a improved method of this material). Isolation of MMP-8 from insoluble fraction was carried out by dissolving in modifier (6M urea) by a usual method and purification with metal chelate chromatography. And then removing modifier (6M urea) with dialysis and refolding of the enzyme spontaneously gave activated MMP-8.
(§1) The enzymatic activity on MMPs was analyzed by the method described in “C. Graham Knight, Frances Willenbrock and Gillian Murphy: A novel coumarin-labelled peptide for sensitive continuous assays of the matrix metalloproteinases: FEBS LETT., 296, (1992), 263-266”. The substrate: MOCAc-Pro-Leu-Gly-Leu-A2Pr(DNP)-Ala-Arg-NH2 was purchased from Peptide Institute, Inc., Osaka, Japan. The measurement of the inhibitory activities (IC50) was carried out by the following four methods;
(§2) (A) Reaction with substrate, enzyme (MMPs) and inhibitor
(§3) (B) Reaction with substrate and inhibitor, without enzyme
(§4) (C) Reaction with substrate and enzyme (MMPs), without inhibitor
(§5) (D) Reaction with substrate only
(§6) IC50 values were calculated by using the following formula and each fluorescence values of above four methods (A to D).
(§7) % inhibition={1−(A−B)/(C−D)}×100
(§8) IC50 means the concentration required to inhibit 50% of the enzyme activity.

MMP-12 catalytic domain = target: T2, MMP-12 catalytic domain (Homo sapiens, UniProt P39900); experiment: Assay for inhibitory activities on MMPs (fluorogenic peptide substrate): MMP-12; type: biochemical; settings: substrate MOCAc-Pro-Leu-Gly-Leu-A2Pr(DNP)-Ala-Arg-NH2
T2 construct: catalytic domain(^100Phe˜^263Gly); His-tag; enterokinase digestion-site; made in house; host or cells: Escherichia coli
Experimental: (§9) In regard to MMP-12, catalytic domain(^100Phe˜^263Gly) was amplified with RT-PCR from Human Placenta Total RNA. This was cloned in Escherichia coli expression vector pTrc99AHE inserted with His-tag sequence and enterokinase digestion-site, induced and expressed by IPTG (Isopropyl-β-D-thiogalactopyranoside) and expressed in a insoluble fraction. Isolation of MMP-12 from a insoluble fraction was carried out by dissolving in modifier (6M urea) by a usual method and purification with metal chelate chromatography (Ni Chelateing Sepharose). And then removing modifier (6M urea) with dialysis and refolding of the enzyme spontaneously gave activated MMP-12.
as §1, §2, §3, §4, §5, §6, §7, §8

MMP-9 = target: T3, MMP-9 (Homo sapiens, UniProt P14780); experiment: Assay for inhibitory activities on MMPs (fluorogenic peptide substrate): MMP-9; type: biochemical; settings: substrate MOCAc-Pro-Leu-Gly-Leu-A2Pr(DNP)-Ala-Arg-NH2
T3 construct: endogenous in cells; host or cells: HT1080 human fibrosarcoma cells, TPA-stimulated; purified in house from conditioned medium
Excerpt: MMP-9 was isolated and purified by using a combination of procedures described in previous reports as follows. Yasunori Okada, Yukio Gonoji, Katsumi Naka, Katsuro Tomita, Isao Nakanishi, Kazushi Iwata, Kyoko Yamashita, and Taro Hayakawa: Matrix metalloproteinase 9 (92-kDa gelatinase/type IV collagenase) from HT1080 human fibrosarcoma cells. Purification and activation of the precursor and enzymic properties. J. Biol. Chem., 267 (1.992) 21712-21719. Yasunori Okada, Tatsuhisa Morodomi, Jan J, Enghild, Ko Suzuki, Atsushi Yasui, Isao Nakanishi, Guy Salvesen and Hideaki Nagase: Matrix metalloproteinase 2 from human rheumatoid synovial fibroblasts. Purification and activation of the precursor and enzymic properties. Eur. J. Biochem. 194 (1990) 721-730. Robin V Ward, Rosalind M Hembry, John J Reynolds and Gillian Murphy: The purification of tissue inhibitor of metalloproteinase-2 from its 72 kDa progelatinase complex. Biochem. J. 278 (1991) 179-187.
Briefly, human fibrosarcoma ATCC HT1080 cell line was cultured to confluent in Dulbecco's Modified Medium (DMEM) containing 10% fetal-calf serum at 37° C. for 48 hours. Subsequently, the medium of confluent culture was changed to serum-free DMEM medium. To obtain MMP-9, Phorbol-12-myristate-13-acetate (TPA) must be added to this serum-free DMEM medium at a concentration of 50 ng/ml. The TPA treated medium was centrifuged at 3000 rpm for 15 min and the supernatant was concentrated to 450 ml by a Toyo-Roshi UP-20 apparatus with an ultrafiltration membrane. Then, proMMP-9 in this concentrated solution was purified by using columns of Gelatin-Sepharose and Concanavalin A-Sepharose. The pool containing proMMP-9 was dialyzed, concentrated (Toyo-Roshi UP-20) and applied to columns of Sephacryl S-200 and Green A matrix for the separation from TIMPs. The obtained proMMP-9 fraction was activated by TPCK-Trypsin (final conc. […] reaction mix.).
as §1, §2, §3, §4, §5, §6, §7, §8

MMP-13 catalytic domain = target: T4, MMP-13 catalytic domain (Homo sapiens, UniProt P45452); experiment: Assay for inhibitory activities on MMPs (fluorogenic peptide substrate): MMP-13; type: biochemical; settings: substrate MOCAc-Pro-Leu-Gly-Leu-A2Pr(DNP)-Ala-Arg-NH2
T4 construct: catalytic domain (^104Tyr˜^267Gly); His-tag; enterokinase digestion-site; made in house; host or cells: Escherichia coli
Experimental: as §9, with “MMP-13, mRNA was prepared from carcinoma cell SW1353 derived from human cartilage stimulate by IL-1, TNF and” for “MMP-12,”, “domain (^104Tyr˜^267Gly)” for “domain(^100Phe˜^263Gly)”, “RT-PCR.” for “RT-PCR from Human Placenta Total RNA.”, “MMP-1.3” for “MMP-12”, “dialyze” for “dialysis”, “MMP-13.” for “MMP-12.”
as §1, §2, §3, §4, §5, §6, §7, §8

MMP-1 = target: T5, MMP-1 (Homo sapiens, UniProt P03956); experiment: Assay for inhibitory activities on MMPs (fluorogenic peptide substrate): MMP-1; type: biochemical; settings: substrate MOCAc-Pro-Leu-Gly-Leu-A2Pr(DNP)-Ala-Arg-NH2
T5 construct: purchased Yagai
T5 sequence (P03956 100-469): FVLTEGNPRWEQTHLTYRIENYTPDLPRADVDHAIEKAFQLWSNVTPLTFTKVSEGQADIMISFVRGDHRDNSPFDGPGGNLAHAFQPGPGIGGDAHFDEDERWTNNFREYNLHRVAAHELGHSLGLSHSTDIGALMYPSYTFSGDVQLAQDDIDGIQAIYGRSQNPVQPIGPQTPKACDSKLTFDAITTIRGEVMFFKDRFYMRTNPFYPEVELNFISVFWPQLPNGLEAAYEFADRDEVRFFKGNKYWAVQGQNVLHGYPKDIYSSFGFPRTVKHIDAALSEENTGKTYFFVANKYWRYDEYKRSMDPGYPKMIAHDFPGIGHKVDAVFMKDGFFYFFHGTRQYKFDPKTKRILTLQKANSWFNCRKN
Experimental: MMP-1 was purchased from Yagai.
as §1, §2, §3, §4, §5, §6, §7, §8

MMP-2 = target: T6, MMP-2 (Homo sapiens, UniProt P08253); experiment: Assay for inhibitory activities on MMPs (fluorogenic peptide substrate): MMP-2; type: biochemical; settings: substrate MOCAc-Pro-Leu-Gly-Leu-A2Pr(DNP)-Ala-Arg-NH2
T6 construct: purchased Calbiochem-Novabiochem International, Inc
T6 sequence (P08253 110-660): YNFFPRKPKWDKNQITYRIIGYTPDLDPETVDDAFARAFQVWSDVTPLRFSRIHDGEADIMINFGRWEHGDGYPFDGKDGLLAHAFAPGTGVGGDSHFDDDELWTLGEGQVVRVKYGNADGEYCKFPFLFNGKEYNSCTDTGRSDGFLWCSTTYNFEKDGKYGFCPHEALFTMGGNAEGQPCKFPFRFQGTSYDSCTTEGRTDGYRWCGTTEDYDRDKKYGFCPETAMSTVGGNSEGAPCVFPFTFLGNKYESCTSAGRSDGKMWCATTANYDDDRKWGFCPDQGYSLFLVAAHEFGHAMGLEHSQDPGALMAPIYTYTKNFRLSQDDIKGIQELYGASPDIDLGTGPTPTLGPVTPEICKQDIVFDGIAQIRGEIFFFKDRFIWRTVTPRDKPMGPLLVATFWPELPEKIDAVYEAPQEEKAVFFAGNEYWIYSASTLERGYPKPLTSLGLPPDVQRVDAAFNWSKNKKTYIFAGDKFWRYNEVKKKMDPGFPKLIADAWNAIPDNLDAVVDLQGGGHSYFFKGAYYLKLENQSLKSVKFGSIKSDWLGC
Experimental: MMP-2 was purchased from Calbiochem-Novabiochem International, Inc.
as §1, §2, §3, §4, §5, §6, §7, §8

T2 sequence (P39900 100-263): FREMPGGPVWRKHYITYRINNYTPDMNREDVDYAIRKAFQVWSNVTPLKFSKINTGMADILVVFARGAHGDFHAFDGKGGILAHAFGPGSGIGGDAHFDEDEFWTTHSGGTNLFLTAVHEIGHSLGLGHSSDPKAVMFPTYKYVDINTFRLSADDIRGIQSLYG
T1 sequence (P22894 99-262): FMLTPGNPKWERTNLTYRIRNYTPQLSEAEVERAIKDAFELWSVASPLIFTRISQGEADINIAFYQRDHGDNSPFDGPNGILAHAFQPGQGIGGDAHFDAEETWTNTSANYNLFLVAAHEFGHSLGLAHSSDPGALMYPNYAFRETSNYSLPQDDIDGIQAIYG
T3 sequence (P14780 107-707 limits assumed): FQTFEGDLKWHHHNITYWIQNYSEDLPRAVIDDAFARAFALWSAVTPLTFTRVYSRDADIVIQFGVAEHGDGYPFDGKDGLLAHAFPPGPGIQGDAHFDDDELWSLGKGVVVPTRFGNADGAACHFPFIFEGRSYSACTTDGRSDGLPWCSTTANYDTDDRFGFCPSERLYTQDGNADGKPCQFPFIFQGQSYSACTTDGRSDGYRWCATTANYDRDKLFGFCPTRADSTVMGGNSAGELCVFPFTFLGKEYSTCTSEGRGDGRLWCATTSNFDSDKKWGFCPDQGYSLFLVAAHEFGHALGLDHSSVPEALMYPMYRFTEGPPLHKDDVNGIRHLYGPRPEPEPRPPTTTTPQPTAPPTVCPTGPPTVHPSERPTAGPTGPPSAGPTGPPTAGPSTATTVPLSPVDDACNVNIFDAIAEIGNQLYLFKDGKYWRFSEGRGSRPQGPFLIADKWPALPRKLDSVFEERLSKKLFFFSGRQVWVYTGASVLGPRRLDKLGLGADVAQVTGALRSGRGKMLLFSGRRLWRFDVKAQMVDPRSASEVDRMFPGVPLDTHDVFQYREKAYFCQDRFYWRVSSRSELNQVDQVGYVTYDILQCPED

SMILES | IC50 (MMP-8 catalytic domain) [µM] | IC50 (MMP-12 catalytic domain) [µM] | IC50 (MMP-9) [µM] | IC50 (MMP-13 catalytic domain) [µM] | IC50 (MMP-1) [µM] | melting point [°C] | IC50 (MMP-2) [µM]
CC(C)[C@H](NS(=O)(=O)c1ccc(C#Cc2ccc3ccccc3c2)cc1)C(=O)O [Compound A-1] | 0.57 | 0.0076 | 0.77 | 0.3 | > 10 | 171 to 173 | 0.4
CC(C)[C@@H](NS(=O)(=O)c1ccc(C#Cc2ccc3ccccc3c2)s1)C(=O)O [Compound B-4] | 0.54 | 0.011 | 0.53 | 0.64 | > 10 |  | 0.24
CC(C)[C@H](NS(=O)(=O)c1ccc(C#Cc2ccc3ccccc3c2)s1)C(=O)O [Compound B-5] | 2.34 | 0.082 | 3.27 | 6.9 | > 10 |  | 2.23
C[C@H](NS(=O)(=O)c1ccc(C#Cc2ccc3ccccc3c2)s1)C(=O)O [Compound B-7] | 7.79 | 0.16 | 6.31 | > 10 | > 10 |  | 2.03
O=C(O)[C@H](NS(=O)(=O)c1ccc(C#Cc2ccc3ccccc3c2)s1)c1ccc(O)cc1 [Compound B-8] | 2.65 | 0.048 | 2.11 | 2.3 | > 10 |  | 1.12
O=C(O)CNS(=O)(=O)c1ccc(C#Cc2ccc3ccccc3c2)s1 [Compound B-9] | > 10 | 0.26 | 4.23 | 7.18 | > 10 |  | 1.27
CSCC[C@@H](NS(=O)(=O)c1ccc(C#Cc2ccc3ccccc3c2)s1)C(=O)O [Compound B-10] | 1 | 0.0088 | 0.87 | 0.95 | > 10 |  | 0.35
CSCC[C@H](NS(=O)(=O)c1ccc(C#Cc2ccc3ccccc3c2)s1)C(=O)O [Compound B-11] | 2.89 | 0.11 | 4.9 | 6.14 | > 10 |  | 1.86
O=C(O)C[C@@H](NS(=O)(=O)c1ccc(C#Cc2ccc3ccccc3c2)s1)C(=O)O [Compound B-12] | 2.6 | 0.04 | 1.1 | 1.4 | > 10 |  | 1.25
O=C(O)[C@@H](Cc1ccccc1)NS(=O)(=O)c1ccc(C#Cc2cccc3ccccc23)s1 [Compound B-17] | > 10 | 0.82 | > 10 | > 10 | > 10 |  | > 10
O=C(O)[C@@H](Cc1ccccc1)NS(=O)(=O)c1ccc(-n2nnc(-c3ccc4ccccc4c3)n2)cc1 [Compound C-1] | > 10 | 0.055 | > 10 | 0.45 | > 10 |  | 0.14
O=C(O)[C@H](Cc1ccccc1)NS(=O)(=O)c1ccc(-n2nnc(-c3ccc4ccccc4c3)n2)cc1 [Compound C-2] | > 10 | 0.14 | > 10 | > 10 | > 10 |  | > 10
O=C(Nc1ccc(S(=O)(=O)N[C@@H](Cc2ccccc2)C(=O)O)cc1)c1ccc2ccccc2c1 [Compound D-2] | 4.51 | 0.15 | 6.56 | 2.33 | > 10 |  | 0.56
